Tests used:
Format in all cases: cell-based
human neutrophils [1] = experiment: elastase release from human neutrophils pretreated with cytochalasin B (NAF activity); details: phosphocellulose fractions
Text: Human monocytes are isolated from buffy coats of donor blood (Swiss Red Cross Laboratory, Bern, Switzerland) by centrifugation through a Ficoll-Paque gradient. This method separates neutrophils from the so-called mononuclear cells, a mixture of monocytes (about 20%) and lymphocytes (about 80%). Three monocyte preparations are used: (i) the total mononuclear cell fraction, (ii) monocytes enriched from the mononuclear cell fraction by adherence, and (iii) 90% pure monocytes separated from the lymphocytes by centrifugal elutriation (G. Garotta et al., Biochem. Biophys. Res. Comm. 140 [1986] 948-954 and K. J. Clemetson et al., J. Exp. Med. 161 [1985] 972-983). The cells are cultured in MEM-PPL and stimulated with increasing concentrations (0.1 ng to 1 μg/ml) of LPS. At different times, aliquots of the culture media are sampled and NAF activity is determined as the capacity to induce the release of elastase from human neutrophils pretreated with cytochalasin B (B. Dewald et al., Biochem. Pharmacol. 36 [1987] 2505-2510).
Mononuclear cells obtained from donor blood buffy coats as described in Example 1 are cultured in MEM-PPL for 48 h in the presence of 100 ng/ml LPS in stirred culture bottles (1.5 liter, 5×10^6 cells/ml). […] Absorbance at 280 nm is monitored continuously as a measure of protein. […]

human neutrophils [2] = experiment: cytosolic free Ca2+ changes in quin-2 loaded human neutrophils; details: as low as
Procedure: Upper graphs: cytosolic free Ca^2+ changes induced by natural (left) and recombinant (right) NAF. Neutrophils (4×10^6 cells/ml) are loaded with 0.1 nmol quin-2/AM and then stimulated with 3 nM NAF (mark). Quin-2 saturation changes calibrated as described in V. Von Tscharner et al., J. Biol. Chem. 261 (1986) 10163-10168.
(§1) Natural and recombinant NAF are tested in parallel on human neutrophils. They elicit virtually identical changes in cytosolic free Ca^2+, yielding a maximum rise at a concentration as low as 3 nM (FIG. 15). A nearly identical concentration-dependent respiratory burst response is obtained with both preparations in the range of 1 to 30 nM as assessed by chemiluminescence. The equivalence between natural and recombinant NAF is also reflected by chemotaxis and exocytosis measurements. Chemotactic migration is observed between 0.1 and 10 nM with a maximum effect at 1 nM. (Table 6). With either peptide a significant release of vitamin B12-binding protein from the specific granules at 0.3 nM and of beta-glucuronidase from the azurophil granules at 1 nM is observed.

human neutrophils [3] = experiment: stimulus-dependent exocytosis of granule contents by human neutrophils
Procedure: Neutrophils (5×10^6/ml) suspended in PBS/BSA are preincubated with or without cytochalasin B (5 μg/ml) at 37° for 5 min.
Granule release is then initiated by adding the stimulus, e.g. NAF or a standard stimulus. The reaction is stopped 15 min later by rapid cooling in ice followed by centrifugation to sediment the cells. Vitamin B12-binding protein, β-glucuronidase and lactate dehydrogenase are determined in the cell-free media and cell pellets, and the release of these constituents is calculated in percent of the total cellular content (B. Dewalt and M. Baggiolini, Methods Enzymol. 132 [1986] 267).
as §1

human neutrophils [4] = experiment: NAF-induced neutrophil chemotaxis (leading front migration); details: for leading front migration: random migration 61 ± 5 μm
Procedure: as §1

Substance	elastase-releasing activity (human neutrophils [1])	concentration yielding a maximum rise in cytosolic free Ca2+ (human neutrophils [2])	concentration giving significant release of beta-glucuronidase from the azurophil granules (human neutrophils [3])	concentration giving significant release of vitamin B12-binding protein from the specific granules (human neutrophils [3])	concentration of maximum chemotactic effect (human neutrophils [4])	leading front migration (human neutrophils [4]; NAF 0.1 nM)	leading front migration (human neutrophils [4]; NAF 1.0 nM)	leading front migration (human neutrophils [4]; NAF 10.0 nM)
interleukin-1 [IL-1]	no elastase-releasing activity							
natural NAF: NAF purified from culture fluid of LPS-stimulated human monocytes		3 nM	1 nM	0.3 nM	1 nM	98 ± 6 μm	123 ± 6 μm	127 ± 3 μm
recombinant NAF: 72-amino-acid NAF obtained by recombinant DNA processes, expressed in E. coli		3 nM	1 nM	0.3 nM	1 nM	88 ± 6 μm	124 ± 3 μm	126 ± 4 μm

From patent US6383479B1, “Neutrophil-activating factor” (Novartis AG, priority 1987, dated 2002)
